Test results reported in patent publication US8461328B2, “Tricyclic heterocyclic compounds, compositions and methods of use thereof” (Genentech, Inc., priority 2010, dated 2013).
pKi: −log10 of the molar value.

How the values were obtained:
Type in all cases: biochemical
[1] = target: T1, JAK2 (Homo sapiens, UniProt O60674); test: JAK2 inhibition (Table 4); conditions: read-out: JAK2 Ki
T1 construct: made in house; host or cells: SF9 insect cells (baculovirus)

[2] = target: T2, TYK2 (Homo sapiens, UniProt P29597); test: TYK2 inhibition (Table 4)
T2 construct: made in house; host or cells: SF9 insect cells (baculovirus)
T2 sequence (P29597 873-1187): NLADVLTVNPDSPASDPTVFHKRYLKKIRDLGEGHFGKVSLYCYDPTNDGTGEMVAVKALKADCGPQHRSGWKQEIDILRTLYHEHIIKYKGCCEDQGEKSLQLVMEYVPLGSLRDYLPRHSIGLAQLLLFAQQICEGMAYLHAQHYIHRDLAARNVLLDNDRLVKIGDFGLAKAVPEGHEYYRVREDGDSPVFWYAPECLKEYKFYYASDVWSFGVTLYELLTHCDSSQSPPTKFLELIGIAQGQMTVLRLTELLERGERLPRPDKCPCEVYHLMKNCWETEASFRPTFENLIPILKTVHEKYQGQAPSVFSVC

[3] = target: T3, JAK1 (Homo sapiens, UniProt P23458); test: JAK1 inhibition (Table 4); conditions: read-out: JAK1 Ki
T3 construct: made in house; host or cells: SF9 insect cells (baculovirus)

[4] = target: T4, JAK3 (Homo sapiens, UniProt P52333); test: JAK3 inhibition (Table 4); conditions: read-out: JAK3 Ki
T4 construct: made in house; host or cells: SF9 insect cells (baculovirus)
T4 sequence (P52333 783-1124): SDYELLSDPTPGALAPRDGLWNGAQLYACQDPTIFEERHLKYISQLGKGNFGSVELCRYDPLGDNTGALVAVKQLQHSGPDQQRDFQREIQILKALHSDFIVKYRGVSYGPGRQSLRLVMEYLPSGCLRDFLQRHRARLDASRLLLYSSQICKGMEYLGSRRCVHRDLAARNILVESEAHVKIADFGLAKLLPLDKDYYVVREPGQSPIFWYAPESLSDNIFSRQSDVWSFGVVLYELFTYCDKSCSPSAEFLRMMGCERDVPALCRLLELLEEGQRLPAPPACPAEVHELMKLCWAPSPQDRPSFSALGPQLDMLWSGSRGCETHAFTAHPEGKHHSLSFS

T3 sequence (P23458 852-1154): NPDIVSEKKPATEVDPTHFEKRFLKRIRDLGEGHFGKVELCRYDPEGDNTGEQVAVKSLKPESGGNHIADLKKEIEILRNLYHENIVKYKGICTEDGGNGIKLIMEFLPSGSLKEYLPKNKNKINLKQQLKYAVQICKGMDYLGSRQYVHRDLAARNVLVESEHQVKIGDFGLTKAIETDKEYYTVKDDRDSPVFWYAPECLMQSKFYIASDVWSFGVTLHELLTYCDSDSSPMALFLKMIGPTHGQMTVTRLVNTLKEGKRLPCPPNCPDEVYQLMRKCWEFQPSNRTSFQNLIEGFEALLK
T1 sequence (O60674 812-1132): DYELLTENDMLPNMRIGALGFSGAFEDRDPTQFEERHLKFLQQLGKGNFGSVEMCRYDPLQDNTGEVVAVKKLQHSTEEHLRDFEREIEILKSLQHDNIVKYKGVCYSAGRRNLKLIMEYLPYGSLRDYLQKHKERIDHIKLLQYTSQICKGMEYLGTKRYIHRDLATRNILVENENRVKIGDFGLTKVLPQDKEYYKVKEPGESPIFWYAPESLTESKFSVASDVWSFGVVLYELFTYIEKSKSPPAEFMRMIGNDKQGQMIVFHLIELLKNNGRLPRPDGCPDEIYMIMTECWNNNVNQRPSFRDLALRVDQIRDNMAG

Row | SMILES | pKi [1] | pKi [2] | pKi [3] | pKi [4]
1 | CC1CNCCC1n1cnc2cnc3[nH]ccc3c21 (racemic) [Example 306, 1-(3-Methyl-piperidin-4-yl)-1,6-dihydro-1,3,5,6-tetraaza-as-indacene] | 6.81 | 6.35 | 7.46 | 6.33
2 | CC1CNCCC1n1cnc2cnc3[nH]ccc3c21 (racemic) [Example 312, 1-(3-Methyl-piperidin-4-yl)-1,6-dihydro-1,3,5,6-tetraaza-as-indacene] | 6.38 | 5.98 | 7.32 | 6.20
3 | CC1CN(CCC#N)CCC1n1cnc2cnc3[nH]ccc3c21 (racemic) [Example 323, 3-[3-Methyl-4-(6H-1,3,5,6-tetraaza-as-indacen-1-yl)-piperidin-1-yl]-propionitrile] | 8.75 | 8.11 | 9.09 | 8.17
4 | CC1CN(CCC#N)CCC1n1cnc2cnc3[nH]ccc3c21 (racemic) [Example 324, 3-[3-Methyl-4-(6H-1,3,5,6-tetraaza-as-indacen-1-yl)-piperidin-1-yl]-propionitrile] | 9.22 | 8.42 | 9.20 | 8.28
5 | CC1CN(Cc2cncnc2)CCC1n1cnc2cnc3[nH]ccc3c21 (racemic) [Example 342, 1-(3-Methyl-1-pyrimidin-5-ylmethyl-piperidin-4-yl)-1,6-dihydro-1,3,5,6-tetraaza-as-indacene] | 8.63 | 7.60 | 8.70 | 7.63
6 | CC1CN(Cc2cncnc2)CCC1n1cnc2cnc3[nH]ccc3c21 (racemic) [Example 343, 1-(3-Methyl-1-pyrimidin-5-ylmethyl-piperidin-4-yl)-1,6-dihydro-1,3,5,6-tetraaza-as-indacene] | 7.86 | 6.46 | 8.24 | 8.49
7 | CC1CN(S(C)(=O)=O)CCC1n1cnc2cnc3[nH]ccc3c21 (racemic) [Example 344, 1-(1-Methanesulfonyl-3-methyl-piperidin-4-yl)-1,6-dihydro-1,3,5,6-tetraaza-as-indacene] | 7.52 | 6.48 | 7.80 | 7.09
8 | CC1CN(S(C)(=O)=O)CCC1n1cnc2cnc3[nH]ccc3c21 (racemic) [Example 345, 1-(1-Methanesulfonyl-3-methyl-piperidin-4-yl)-1,6-dihydro-1,3,5,6-tetraaza-as-indacene] | 8.01 | 7.43 | 8.04 | 6.45
9 | CC(O)c1nc2cnc3[nH]ccc3c2n1C1CCN(Cc2ccnc(C#N)c2)CC1 (racemic) [Example 350, 4-{4-[2-(1-Hydroxy-ethyl)-6H-1,3,5,6-tetraaza-as-indacen-1-yl]-piperidin-1-ylmethyl}-pyridine-2-carbonitrile] | 7.30 | 6.57 | 8.19 | 6.75
10 | CC(O)c1nc2cnc3[nH]ccc3c2n1C1CCN(Cc2csc(C(F)(F)F)n2)CC1 (racemic) [Example 351, 1-{1-[1-(2-Trifluoromethyl-thiazol-4-ylmethyl)-piperidin-4-yl]-1,6-dihydro-1,3,5,6-tetraaza-as-indacen-2-yl}-ethanol] | 7.53 | 6.55 | 8.31 | 7.50
11 | Cc1nc2cnc3[nH]ccc3c2n1C1CCC(NC(=O)OC(C)(C)C)C1 (racemic) [Example 352, [(1S,3S)-3-(2-Methyl-6H-1,3,5,6-tetraaza-as-indacen-1-yl]-cyclopentyl]-carbamic acid tert-butyl ester] | 8.25 | 7.35 | 8.99 | 7.63
12 | CC(O)c1nc2cnc3[nH]ccc3c2n1C1CCN(CC(F)(F)F)CC1 (racemic) [Example 355, 1-{1-[1-(2,2,2-Trifluoro-ethyl)-piperidin-4-yl]-1,6-dihydro-1,3,5,6-tetraaza-as-indacen-2-yl}-ethanol] | 7.35 | 7.46 | 8.42 | 7.38
13 | CCC(C)S(=O)(=O)NCCc1nc2cnc3[nH]ccc3c2n1C1CCN(CCC#N)CC1 (racemic) [Example 369, Butane-2-sulfonic acid (2-{1-[1-(2-cyano-ethyl)-piperidin-4-yl]-1,6-dihydro-1,3,5,6-tetraaza-as-indacen-2-yl}-ethyl)-amide] | 7.84 | 7.14 | 8.56 | 7.59
14 | CC(CC#N)N1CCC(n2c(CCn3cncn3)nc3cnc4[nH]ccc4c32)CC1 (racemic) [Example 394, 3-{4-[2-(2-[1,2,4]Triazol-1-yl-ethyl)-6H-1,3,5,6-tetraaza-as-indacen-1-yl]-piperidin-1-yl}-butyronitrile] | 7.42 | 6.77 | 7.74 | 6.82
15 | CC(CC#N)N1CCC(n2c(CS(C)(=O)=O)nc3cnc4[nH]ccc4c32)CC1 (racemic) [Example 396, 3-[4-(2-Methanesulfonylmethyl-6H-1,3,5,6-tetraaza-as-indacen-1-yl)-piperidin-1-yl]-butyronitrile] | 7.44 | 7.02 | 7.81 | 7.74
16 | CC(=O)N(C)CCc1nc2cnc3[nH]ccc3c2n1C1CCN(C(C)CC#N)CC1 (racemic) [Example 398, N-(2-{1-[1-(2-Cyano-1-methyl-ethyl)-piperidin-4-yl]-1,6-dihydro-1,3,5,6-tetraaza-as-indacen-2-yl}-ethyl)-N-methyl-acetamide] | 7.33 | 6.62 | 7.68 | 6.75
17 | CC(CC#N)N1CCC(n2c(CN3CCCC3=O)nc3cnc4[nH]ccc4c32)CC1 (racemic) [Example 399, 3-{4-[2-(2-Oxo-pyrrolidin-1-ylmethyl)-6H-1,3,5,6-tetraaza-as-indacen-1-yl]-piperidin-1-yl}-butyronitrile] | 7.01 | 6.75 | 7.48 | 6.90

Now from value to compound:

Row | pKi [1] | pKi [2] | pKi [3] | pKi [4] | SMILES
18 | 6.86 | 6.28 | 7.76 | 7.32 | CN1CC(c2nc3cnc4[nH]ccc4c3n2C2CCN(CCC#N)CC2)CC1=O (racemic) [Example 384, 3-{4-[2-(1-Methyl-5-oxo-pyrrolidin-3-yl)-6H-1,3,5,6-tetraaza-as-indacen-1-yl]-piperidin-1-yl}-propionitrile]
19 | 6.78 | 6.35 | 7.63 | 7.11 | CC(C)N1CC(c2nc3cnc4[nH]ccc4c3n2C2CCN(CCC#N)CC2)CC1=O (racemic) [Example 388, 3-{4-[2-(1-Isopropyl-5-oxo-pyrrolidin-3-yl)-6H-1,3,5,6-tetraaza-as-indacen-1-yl]-piperidin-1-yl}-propionitrile]
20 | 7.12 | 6.35 | 7.67 | 7.32 | CC(=O)N1CCC(c2nc3cnc4[nH]ccc4c3n2C2CCN(CCC#N)CC2)C1 (racemic) [Example 390, 3-{4-[2-(1-Acetyl-pyrrolidin-3-yl)-6H-1,3,5,6-tetraaza-as-indacen-1-yl]-piperidin-1-yl}-propionitrile]
21 | 7.57 | 7.04 | 8.12 | 7.45 | CC(CC#N)N1CCC(n2c(C3CCOC3)nc3cnc4[nH]ccc4c32)CC1 (racemic) [Example 391, 3-{4-[2-(Tetrahydro-furan-3-yl)-6H-1,3,5,6-tetraaza-as-indacen-1-yl]-piperidin-1-yl}-butyronitrile]
22 | 7.78 | 6.89 | 8.18 | 7.47 | CC(CC#N)N1CCC(n2c(C3CCC3)nc3cnc4[nH]ccc4c32)CC1 (racemic) [Example 392, 3-[4-(2-Cyclobutyl-6H-1,3,5,6-tetraaza-as-indacen-1-yl)-piperidin-1-yl]-butyronitrile]
23 | 7.35 | 6.42 | 7.34 | 7.52 | CC(CC#N)N1CCC(n2c(C3CCOCC3)nc3cnc4[nH]ccc4c32)CC1 (racemic) [Example 393, 3-{4-[2-(Tetrahydro-pyran-4-yl)-6H-1,3,5,6-tetraaza-as-indacen-1-yl]-piperidin-1-yl}-butyronitrile]
24 | 7.14 | 6.61 | 7.75 | 7.02 | CC(CC#N)N1CCC(n2c(C3CC(=O)N(C)C3)nc3cnc4[nH]ccc4c32)CC1 (racemic) [Example 395, 3-{4-[2-(1-Methyl-5-oxo-pyrrolidin-3-yl)-6H-1,3,5,6-tetraaza-as-indacen-1-yl]-piperidin-1-yl}-butyronitrile]
25 | 7.20 | 6.57 | 7.52 | 6.94 | CC(=O)N1CCC(c2nc3cnc4[nH]ccc4c3n2C2CCN(C(C)CC#N)CC2)C1 (racemic) [Example 397, 3-{4-[2-(1-Acetyl-pyrrolidin-3-yl)-6H-1,3,5,6-tetraaza-as-indacen-1-yl]-piperidin-1-yl}-butyronitrile]
26 | 6.94 | 6.37 | 7.20 | 6.55 | CC(=O)N1CCC(c2nc3cnc4[nH]ccc4c3n2C2CCN(C(C)CC#N)CC2)CC1 (racemic) [Example 400, 3-{4-[2-(1-Acetyl-piperidin-4-yl)-6H-1,3,5,6-tetraaza-as-indacen-1-yl]-piperidin-1-yl}-butyronitrile]
27 | 7.64 | 7.01 | 8.02 | 7.45 | CC(CC#N)N1CCC(n2c(CC3CC3)nc3cnc4[nH]ccc4c32)CC1 (racemic) [Example 401, 3-[4-(2-Cyclopropylmethyl-6H-1,3,5,6-tetraaza-as-indacen-1-yl)-piperidin-1-yl]-butyronitrile]
